Assay results as given in patent US12691089B2, “Stable levothyroxine compositions in aprotic polar solvents” (Xeris Pharmaceuticals, Inc., priority 2022, dated 2026).
Each block holds one compound with its values, some of them ahead of it.

Experiments:
[1] = Accelerated stability of 5 mg/mL levothyroxine in (acidified) DMSO: discoloration and RP-HPLC
Experimental: To attempt to overcome these discoloration and degradation problems, levothyroxine solutions were prepared with either the free acid or the sodium salt of levothyroxine dissolved in acidified DMSO, at a levothyroxine sodium concentration of 5 mg/mL. To prepare acidified DMSO solvents, DMSO was acidified with 0-10 mM H2SO4 (from a 1.0 N H2SO4 stock solution), and samples were stored in 2 mL glass vials (0.5 mL fill volume per vial) and stored at 45° C. upright for 9 days for an accelerated stability analysis without any secondary packaging (e.g., foil pouch). Samples were then photographed (to examine discoloration) and examined via reverse phase HPLC (to examine levothyroxine chemical stability), comparing day 0 samples to day 9 samples (vs. a sample of each formulation that was frozen and held at −20° C. as a “time 0” control).
To determine if the discoloration observed with these formulations correlated with levothyroxine chemical degradation, samples of each vial were assessed via reverse phase HPLC (RP-HPLC).

[2] = Solubility of levothyroxine sodium in DMSO; assay type: physicochemical; details: organic solvent or mixture
Description: However, direct dissolution of levothyroxine sodium in DMSO (with no added excipients) caused rapid visual discoloration and chemical degradation (where the extent of discoloration generally correlates with degradation). […] Additionally, the chemical degradation appeared to be associated with the discoloration of the solution that was observed.

[3] = Storage stability of levothyroxine formulations in acidified DMSO (RP-HPLC T4/T3); assay type: physicochemical; details: 10 mg/mL in DMSO
Experimental: Based on the results shown above, formulations of levothyroxine sodium were prepared at an acid concentration that promoted chemical stability and a moisture content of at least 4% (w/w). […] The overall moisture content of the formulation was ~5% when prepared using 1.0 N H2SO4. The moisture content of this formulation was due almost entirely to the added sulfuric acid (with a minor contribution from the trehalose dihydrate), which at 26 mM (from a 1.0 N (0.5 M) stock solution) results in a moisture content~5% (w/w). When prepared using concentrated acid (e.g., 10 N), the overall moisture content of the formulation could be reduced to about ~1% without any significant impact on storage stability.
An example of the stability that can be achieved using this formulation approach at multiple temperatures for up to 6 months is shown in Table 1, which represents the purity of T4 (levothyroxine sodium) in the 10 mg/mL, 26-28 mM acid DMSO formulations described above, over time at various storage temperatures. Results shown are measurements of T4 vs. T3 (triiodothyronine, the main degradation product of T4), determined as described above via RP-HPLC. In this table, the higher the percentage of T4 and the lower the percentage of T3, the less degradation observed in the levothyroxine formulations over time.

[4] = cited from earlier work

degradation by RP-HPLC ([1]; 5 mg/mL in DMSO, 0-2 mM H2SO4, 9 days at 45° C.): extensive degradation
discoloration ([1]; 5 mg/mL in DMSO, 0-10 mM H2SO4, day 0): did not show significant discoloration
discoloration compared to levothyroxine sodium salt ([1]; 5 mg/mL in DMSO, all concentrations of acid, 9 days at 45° C.): lower amount of discoloration
sulfuric acid concentration necessary to significantly enhance chemical stability ([1]; 5 mg/mL solution in DMSO, accelerated stability testing): ~ 10 mM
Structure (SMILES): N[C@@H](Cc1cc(I)c(Oc2cc(I)c(O)c(I)c2)c(I)c1)C(=O)O [levothyroxine free acid]

solubility [2]: ≥ 30 mg/mL
discoloration ([1]; 5 mg/mL in DMSO, 10 mM H2SO4, 9 days at 45° C.): no significant discoloration
chemical stability (T4 peak purity) vs acid concentration ([3]; <26 mM sulfuric acid): extensive chemical degradation
chemical stability (T4 peak purity) vs acid concentration ([3]; above approximate 26 mM acid): chemical stability essentially plateaus
Structure (SMILES): N[C@@H](Cc1cc(I)c(Oc2cc(I)c(O)c(I)c2)c(I)c1)C(=O)O [levothyroxine sodium]
discoloration ([1]; 5 mg/mL in DMSO, H2SO4 below 4 mM, day 0): degradation-associated discoloration fairly quickly

Structure (SMILES): N[C@@H](Cc1cc(I)c(Oc2cc(I)c(O)c(I)c2)c(I)c1)C(=O)O [levothyroxine]
solubility in water [4]: ≤ 0.1 mg/mL
